Assay results: patent US20090023784A1, “USE OF DEFERIPRONE AND METHODS TO TREAT AND/OR PREVENT FRIEDREICH ATAXIA RESULTING FROM INTRACELLULAR MISHANDLING OF IRON” (priority 2006, published 2009)

Assay: Serum deferiprone time-concentration profile (HPLC) in the 52-week monkey study
Type: in vivo, cynomolgus monkeys
Conditions: 75 mg/kg twice daily
Method: Groups of 4 male and 4 female monkeys (2 to 3 years old) were dosed by nasogastric intubation at (0.5% w/v aqueous carboxymethylcellulose vehicle) 75 mg/kg deferiprone twice daily (bid), with 6-8 hours between doses, for at least 364 days.
Clinical signs, body weights and food intake were assessed at frequent intervals. Ophthalmological and cardiovascular examinations were carried out in Weeks 17, 30, 43, 56 and 60. Hematology, coagulation, clinical chemistry and urine parameters were measured at baseline and in Weeks 8, 16, 30, 41, 56 and 60. Blood samples were taken on the first day of dosing, and in Weeks 17 and 56 for assessment of the serum deferiprone time-concentration profile. A full necropsy was performed on each animal, selected organs weighed, and histopathological examination of abnormalities and selected tissues conducted.

Cc1c(O)c(=O)ccn1C [Deferiprone, 3-hydroxy-1,2-dimethylpyridin-4-one]
peak concentration relative to thalassemia patients treated with 25 mg/kg three times daily: about three times | deferiprone detectable in serum for up to (HPLC): up to 7 h | deferiprone detectable in serum from (time after dosing) (HPLC): ≥ 0.5 h | half-life (both sexes, cynomolgus monkey, serum, oral, range in individuals): 0.35 to 2.39 h
